Test results taken from article PMC5608352, “Formyl peptide derived lipopeptides disclose differences between the receptors in mouse and men and call the pepducin concept in question” (PLoS ONE, 2017).

Legend:
Fpr2 [1] = biological target: T1, Fpr2 (Mus musculus, UniProt O88536); parameters: method as in PMID 27614010; settings: ref [12]; cited from earlier work
T1 construct: WT mouse neutrophils (5 x 10^4 cells) were pre-incubated without (solid line) or with mF2Pal16; endogenous in cells; host or cells: bone marrow neutrophils of C57BL/6 wild-type mice, TNF-alpha primed
T1 sequence (O88536 1-351): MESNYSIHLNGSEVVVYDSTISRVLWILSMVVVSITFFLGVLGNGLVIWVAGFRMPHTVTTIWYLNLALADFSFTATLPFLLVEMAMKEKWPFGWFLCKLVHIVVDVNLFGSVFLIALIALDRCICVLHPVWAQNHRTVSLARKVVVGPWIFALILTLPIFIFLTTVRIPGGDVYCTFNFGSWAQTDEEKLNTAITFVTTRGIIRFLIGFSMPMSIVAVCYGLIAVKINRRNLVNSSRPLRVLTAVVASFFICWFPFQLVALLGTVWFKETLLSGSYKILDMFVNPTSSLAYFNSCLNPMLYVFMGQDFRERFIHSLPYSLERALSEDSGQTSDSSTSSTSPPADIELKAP
From the text: When looking at the FPRs in different species it is clear that the receptor family has a complex evolutionary history, as illustrated by the fact that the number of genes in the family vary markedly in mouse and man. […] As different mouse models constitute important tools for translational studies aiming to understa ... || Genetically modified mouse strains and mouse disease models provide excellent tools to study the function of neutrophil FPRs in vivo. Such studies have indicated Fprs (in particular Fpr2) as important regulators of the physiological processes leading to resolution of inflammation. However, a direct translation of mouse data to human studies is hampered due to the distant phylogenetic relationship between mouse and human receptors. In addition to the different number of Fpr genes in mice and humans and an incomplete understanding of the evolutionary relationship between human FPRs ...

Fpr2 [2] = biological target: T1, Fpr2; assay: Inhibition of F2Pal16-induced superoxide release, WT mouse neutrophils; format: cell-based; settings: Boc2 2 μM or peptidomimetic inhibitor 1 μM (five experiments), or mF2Pal16 500 nM against F2Pal16 500 nM (three experiments); 5 min pre-incubation
From the text: Mice (8–12 weeks of age) were killed by cervical dislocation, the femurs and tibias were removed and freed of soft tissue attachments, and the extreme distal tip of each extremity was cut off. KRG without Ca^2+ and Mg^2+ (KRG-) was forced through the bone by using a 1-mL syringe with a 27-gauge needle. After dispersing cell clumps and removing the debris, the bone marrow granulocytes were isolated according to an earlier described procedure with some modifications. Briefly, a cell suspension in 2 mL of KRG- was laid on top of a three-layer Percoll gradient (1.095, 1.085, and 1.070 g/mL). The density of each Percoll solution was verified using density marker beads. After centrifugation at 500 × g for 30 min at 4°C in a swinging bucket rotor, the lowest band (1.085/1.095 g/mL interface) was collected as the neutrophil fraction. After washing with KRG-, remaining red blood cells were eliminated by hypotonic lysis. After a final wash with KRG-, the cells were resuspended in KRG. The cell number and population of bone marrow cells were determined by flow cytometry based on forward scatter (size) and side scatter (density) localization.
NADPH-oxidase activity was determined using an isoluminol and HRP-enhanced chemiluminescence (CL) system that allow for the determination of superoxide production. The CL activity was measured in a six-channel Biolumat LB 9505 apparatus (Berthold Co., Wildbad, Germany), using disposable 4-mL polypropylene tubes with 1 mL reaction mixture. […] The light emission was recorded continuously over time and presented as superoxide production (in arbitrary light units, cpm x10^-6) as a function of time (min). The activity before stimulus addition was recorded as basal line and this activity was not changed in vehicle control samples. […]
Data analysis was performed using Graph Pad Prism 7.0. The EC50/IC50 values were determined from experiments in which the activities were normalized to the response induced by maximal response or induced by agonist in the absence of inhibitor. […]

Fpr2^-/- neutrophils = assay: Direct activation: superoxide release, Fpr2^-/- mouse neutrophils compared with WT; format: cell-based; settings: fMIFL 10 nM, reference response
From the text: C57BL/6 wild-type mice were purchased from Charles River Laboratories and Fpr2^−/− mice generated as described previously, were generously provided by Dr Ji Ming Wang, Frederick National Laboratory for Cancer Research, USA. Mice were kept under standard temperature and light conditions and fed laboratory chow and water ad libitum, at the Department of Rheumatology and Inflammation Research, University of Gothenburg. Sex matched WT and Fpr2^-/- animals (age 8–10 weeks) were used to isolated bone marrow derived neutrophils. The studies performed were approved by the Ethical Committee for Animal Experimentation, Göteborg, Sweden.
Mice (8–12 weeks of age) were killed by cervical dislocation, the femurs and tibias were removed and freed of soft tissue attachments, and the extreme distal tip of each extremity was cut off. […] The cell number and population of bone marrow cells were determined by flow cytometry based on forward scatter (size) and side scatter (density) localization.
NADPH-oxidase activity was determined using an isoluminol and HRP-enhanced chemiluminescence (CL) system that allow for the determination of superoxide production. The CL activity was measured in a six-channel Biolumat LB 9505 apparatus (Berthold Co., Wildbad, Germany), using disposable 4-mL polypropylene tubes with 1 mL reaction mixture. […]

Row | effect of inhibitor on F2Pal16 response, WT mouse neutrophils (Fpr2 [2]) | Substance | activity at mouse Fprs (earlier work) (Fpr2 [1]) | fMIFL superoxide response in Fpr2^-/- versus WT neutrophils (Fpr2^-/- neutrophils)
1 | – | WKYMVM [FPR2 specific agonist] | low affinity for their mouse orthologous | –
2 | significantly reduced | Lau-(Lys-βNSpe)6-NH2 | – | –
3 | – | fMIFL [reference compound] | potently and selectively activate Fpr1 | comparable in WT and Fpr2 deficient neutrophils
4 | – | fMLF | low affinity for their mouse orthologous | –
